# Measured values as given in paper PMC7255801, “Disease-associated mutations in the human TRPM3 render the channel overactive via two distinct mechanisms” (eLife, 2020).
# Experiments:
# wild-type hTRPM3_1325 = molecular target: T1, wild-type hTRPM3_1325 (Homo sapiens, UniProt Q9HCF6); assay: Two electrode voltage clamp in Xenopus oocytes, wild type channel; assay type: cell-based; conditions: wild type TRPM3, 50 μM, room temperature (20–22°C)
# T1 construct: expressed in transfected cells; host or cells: Xenopus laevis oocytes (cRNA injection)
# T1 sequence (Q9HCF6 1-1325 isoform Q9HCF6-10): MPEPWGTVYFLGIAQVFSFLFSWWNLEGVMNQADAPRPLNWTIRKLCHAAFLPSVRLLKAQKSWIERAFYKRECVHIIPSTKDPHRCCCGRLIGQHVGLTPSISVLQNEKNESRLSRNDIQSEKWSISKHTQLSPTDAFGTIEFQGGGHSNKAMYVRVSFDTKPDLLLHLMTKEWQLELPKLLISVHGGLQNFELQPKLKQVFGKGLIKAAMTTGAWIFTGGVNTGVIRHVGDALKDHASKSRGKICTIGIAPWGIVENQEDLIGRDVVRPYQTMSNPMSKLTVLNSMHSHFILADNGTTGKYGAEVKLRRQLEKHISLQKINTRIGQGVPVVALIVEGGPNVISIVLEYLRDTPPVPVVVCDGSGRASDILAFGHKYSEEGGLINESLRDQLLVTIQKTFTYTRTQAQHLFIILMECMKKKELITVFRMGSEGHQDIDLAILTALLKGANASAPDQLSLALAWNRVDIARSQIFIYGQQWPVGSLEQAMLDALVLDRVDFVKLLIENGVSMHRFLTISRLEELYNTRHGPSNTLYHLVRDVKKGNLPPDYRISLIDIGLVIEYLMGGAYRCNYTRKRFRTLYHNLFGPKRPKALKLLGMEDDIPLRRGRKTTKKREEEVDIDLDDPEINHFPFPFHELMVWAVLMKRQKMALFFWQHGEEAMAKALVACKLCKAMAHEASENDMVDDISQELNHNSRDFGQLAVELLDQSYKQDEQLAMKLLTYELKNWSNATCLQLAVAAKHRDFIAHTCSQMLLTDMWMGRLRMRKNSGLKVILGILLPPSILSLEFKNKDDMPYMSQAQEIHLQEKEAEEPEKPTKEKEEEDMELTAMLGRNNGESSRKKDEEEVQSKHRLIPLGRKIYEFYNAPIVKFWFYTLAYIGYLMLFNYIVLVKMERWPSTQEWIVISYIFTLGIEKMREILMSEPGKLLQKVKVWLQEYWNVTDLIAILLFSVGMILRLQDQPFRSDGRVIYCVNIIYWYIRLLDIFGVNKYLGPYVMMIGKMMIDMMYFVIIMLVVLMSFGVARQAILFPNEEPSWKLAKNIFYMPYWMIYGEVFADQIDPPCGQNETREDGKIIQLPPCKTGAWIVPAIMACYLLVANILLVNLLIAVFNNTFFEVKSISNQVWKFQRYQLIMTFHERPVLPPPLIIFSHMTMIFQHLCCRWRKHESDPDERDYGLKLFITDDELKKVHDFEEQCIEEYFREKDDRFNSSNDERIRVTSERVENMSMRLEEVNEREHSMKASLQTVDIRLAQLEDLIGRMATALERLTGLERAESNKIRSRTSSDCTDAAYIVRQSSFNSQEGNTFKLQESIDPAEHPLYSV
# Description: (§1) Xenopus laevis oocytes were prepared as described earlier ([Badheka et al., 2015]). All animal procedures were approved by the Institutional Animal Care and Use Committee at Rutgers New Jersey Medical School. In brief, frogs were anesthetized in 0.25% ethyl 3-aminobenzoate methanesulfonate solution (MS222; Sigma-Aldrich); bags of ovaries were removed surgically from the anesthetized frogs. Individual oocytes were obtained by overnight digestion at 16°C in 0.2–0.3 mg/ml type 1A collagenase (Sigma-Aldrich), dissolved in a solution containing 82.5 mM NaCl, 2 mM KCl, 1 mM MgCl2, and […] HEPES, pH 7.4 (OR2 solution). The next day the collagenase containing solution was discarded and the oocytes were washed multiple times with OR2 solution. […]
# (§2) Two electrode voltage clamp experiments were performed as described ([Badheka et al., 2015]). In brief, oocytes were placed in extracellular solution (97 mM NaCl, 2 mM KCl, 1 mM MgCl2, and […] HEPES, pH 7.4), and currents were recorded with thin-wall inner filament– containing glass pipettes (World Precision Instruments) filled with 3 M KCl in 1% agarose. Currents were measured with a ramp protocol from −100 to 100 mV once every 0.5 s with a GeneClamp 500B amplifier and analyzed with the pClamp 9.0 software (Molecular Devices). […]
# non-injected oocytes = assay: Two electrode voltage clamp in non-injected oocytes; assay type: cell-based, Xenopus laevis; conditions: 50 μM, n = 5
# Description: as §1, §2
smiles,measurement,setting,value
CCC1(c2ccccc2)C(=O)NCNC1=O [primidone],Inhibition of basal current,wild-type hTRPM3_1325,small reduction
same,Inhibition of basal current,non-injected oocytes,did not induce any inhibition
